# In ChEMBL document CHEMBL1155719, “Synthesis of phakellistatin 11: a micronesia (Chuuk) marine sponge cyclooctapeptide” (2001):
# Residues, ends and D or L forms follow the SMILES beside them.
# How the values were obtained:
# P388 [1] = assay: Cytotoxicity against mouse P388 cells; type: functional; settings: read-out: ED50 (the source's name)
# P388 [2] = assay: Cytotoxicity against mouse P388 cells by NMR biological activity study; type: functional; settings: read-out: ED50 (the source's name)
SMILES,EC50 (P388 [1]),EC50 (P388 [2])
CC[C@H](C)[C@@H]1NC(=O)[C@@H]2CCCN2C(=O)[C@H](Cc2ccccc2)NC(=O)[C@@H]2CCCN2C(=O)[C@H](Cc2ccc(O)cc2)NC(=O)[C@@H]2CCCN2C(=O)[C@H]([C@@H](C)CC)NC1=O.Cl [PHAKELLISTATIN 2 (SYNTHETIC)] (cyclo(FPIIPYP)),24 µg/mL,–
CC[C@H](C)[C@@H]1NC(=O)[C@@H]2CCCN2C(=O)[C@H](Cc2ccccc2)NC(=O)[C@@H]2CCCN2C(=O)[C@H](Cc2ccc(O)cc2)NC(=O)[C@@H]2CCCN2C(=O)[C@H]([C@@H](C)CC)NC1=O [PHAKELLISTATIN 2] (cyclo(FPIIPYP)),0.34 µg/mL,–
CC[C@H](C)[C@@H]1NC(=O)[C@H](CC(C)C)NC(=O)[C@@H]2CCCN2C(=O)[C@H]([C@@H](C)CC)NC(=O)[C@@H]2CCCN2C(=O)[C@H](CO)NC(=O)[C@H](Cc2ccccc2)NC1=O [STYLOPEPTIDE] (cyclo(FSPIPLI)),0.1 µg/mL,6 µg/mL
CC[C@H](C)[C@@H]1NC(=O)[C@H](C)NC(=O)[C@H](CC(C)C)NC(=O)[C@H](CO)NC(=O)[C@H](CC(N)=O)NC(=O)[C@H](Cc2ccccc2)NC(=O)[C@@H]2CCCN2C1=O [STYLOSTATIN 1] (cyclo(AIPFNSL)),10 µg/mL,–
